ChEMBL document CHEMBL1909046, “DrugMatrix in vitro pharmacology data”

Legend:
[1] = molecular target: T1, 5-hydroxytryptamine receptor 2C (Homo sapiens, UniProt P28335); test: DRUGMATRIX: Serotonin (5-Hydroxytryptamine) 5-HT2C radioligand binding (ligand: [3H] Mesulergine); assay type: cell membranes, CHO-K1, Membrane; conditions: Not Active = under 50% inhibition at 10 µM
T1 sequence (P28335 whole entry): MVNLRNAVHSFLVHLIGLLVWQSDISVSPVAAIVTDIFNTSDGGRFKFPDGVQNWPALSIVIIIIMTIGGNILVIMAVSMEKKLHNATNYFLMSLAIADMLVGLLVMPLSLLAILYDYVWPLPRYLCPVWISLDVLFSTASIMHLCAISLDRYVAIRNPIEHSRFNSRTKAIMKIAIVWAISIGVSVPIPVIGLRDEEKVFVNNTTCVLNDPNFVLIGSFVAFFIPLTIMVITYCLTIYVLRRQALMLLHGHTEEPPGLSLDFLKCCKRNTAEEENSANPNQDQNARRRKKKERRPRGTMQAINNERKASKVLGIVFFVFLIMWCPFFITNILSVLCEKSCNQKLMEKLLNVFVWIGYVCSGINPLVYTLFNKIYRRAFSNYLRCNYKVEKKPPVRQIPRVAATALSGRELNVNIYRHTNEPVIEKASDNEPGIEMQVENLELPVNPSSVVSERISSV

Calcitonin receptor = molecular target: T2, Calcitonin receptor (Homo sapiens, UniProt P30988); assay type: cell membranes, Membrane; conditions: t47d; note: in other assays of this panel Not Active means under 50% inhibition at 10 µM
T2 sequence (P30988 whole entry): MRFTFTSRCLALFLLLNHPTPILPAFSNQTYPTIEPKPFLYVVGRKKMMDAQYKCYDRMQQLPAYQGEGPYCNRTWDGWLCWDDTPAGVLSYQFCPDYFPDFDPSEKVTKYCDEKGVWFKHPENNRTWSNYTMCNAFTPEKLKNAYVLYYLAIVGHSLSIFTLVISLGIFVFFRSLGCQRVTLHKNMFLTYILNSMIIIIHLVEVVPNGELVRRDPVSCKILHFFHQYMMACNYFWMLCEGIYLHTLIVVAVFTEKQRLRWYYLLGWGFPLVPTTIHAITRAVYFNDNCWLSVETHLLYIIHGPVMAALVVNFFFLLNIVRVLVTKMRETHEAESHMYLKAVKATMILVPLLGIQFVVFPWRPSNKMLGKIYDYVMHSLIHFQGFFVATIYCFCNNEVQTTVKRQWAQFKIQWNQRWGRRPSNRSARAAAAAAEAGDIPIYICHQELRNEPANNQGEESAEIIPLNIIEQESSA

Melanocortin receptor 4 = Melanocortin receptor 4 (Homo sapiens, UniProt P32245); assay type: cell membranes, Membrane; conditions: hek293; note: in other assays of this panel Not Active means under 50% inhibition at 10 µM
[2] = molecular target: Beta-1 adrenergic receptor (Homo sapiens, UniProt P08588); test: DRUGMATRIX: Adrenergic beta1 radioligand binding (ligand: [125I] Cyanopindolol); assay type: cell membranes, CHO-K1, Membrane; conditions: cho-k1; Not Active = under 50% inhibition at 10 µM
[3] = molecular target: T3, Neuropeptide Y receptor type 1 (Homo sapiens, UniProt P25929); assay type: cell membranes, Membrane; conditions: sk-n-mc; note: in other assays of this panel Not Active means under 50% inhibition at 10 µM
T3 sequence (P25929 whole entry): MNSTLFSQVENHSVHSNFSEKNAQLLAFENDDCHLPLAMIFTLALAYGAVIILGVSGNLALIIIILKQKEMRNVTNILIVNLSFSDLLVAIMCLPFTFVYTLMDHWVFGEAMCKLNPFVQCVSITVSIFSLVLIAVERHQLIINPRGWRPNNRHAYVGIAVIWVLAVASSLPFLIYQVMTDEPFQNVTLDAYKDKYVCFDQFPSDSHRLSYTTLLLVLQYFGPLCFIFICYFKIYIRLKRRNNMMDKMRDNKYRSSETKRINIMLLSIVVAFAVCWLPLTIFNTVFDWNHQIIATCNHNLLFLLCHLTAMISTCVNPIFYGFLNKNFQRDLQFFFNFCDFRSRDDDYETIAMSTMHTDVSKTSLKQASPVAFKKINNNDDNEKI

Adenosine receptor A2a = Adenosine receptor A2a (Homo sapiens, UniProt P29274); test: DRUGMATRIX: Adenosine A2A radioligand binding (ligand: […]); assay type: cell membranes, HEK293, Membrane; conditions: hek293; Not Active = under 50% inhibition at 10 µM
[4] = molecular target: Protein kinase C alpha type (Homo sapiens, UniProt P17252); assay type: cell-based; conditions: sf9;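 note: inhibition of PKCalpha kinase activity measured in an enzyme assay with histone as the phosphorylation substrate; in other assays of this panel Not Active means under 50% inhibition at 10 µM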
Mu-type opioid receptor = Mu-type opioid receptor (Homo sapiens, UniProt P35372); test: DRUGMATRIX: Opiate mu (OP3, MOP) radioligand binding (ligand: [3H] Diprenorphine); assay type: cell membranes, CHO-K1, Membrane; conditions: cho-k1; Not Active = under 50% inhibition at 10 µM
[5] = molecular target: T4, Muscarinic acetylcholine receptor M4 (Homo sapiens, UniProt P08173); assay type: cell membranes, CHO-K1, Membrane; conditions: cho-k1; note: in other assays of this panel Not Active means under 50% inhibition at 10 µM
T4 sequence (P08173 whole entry): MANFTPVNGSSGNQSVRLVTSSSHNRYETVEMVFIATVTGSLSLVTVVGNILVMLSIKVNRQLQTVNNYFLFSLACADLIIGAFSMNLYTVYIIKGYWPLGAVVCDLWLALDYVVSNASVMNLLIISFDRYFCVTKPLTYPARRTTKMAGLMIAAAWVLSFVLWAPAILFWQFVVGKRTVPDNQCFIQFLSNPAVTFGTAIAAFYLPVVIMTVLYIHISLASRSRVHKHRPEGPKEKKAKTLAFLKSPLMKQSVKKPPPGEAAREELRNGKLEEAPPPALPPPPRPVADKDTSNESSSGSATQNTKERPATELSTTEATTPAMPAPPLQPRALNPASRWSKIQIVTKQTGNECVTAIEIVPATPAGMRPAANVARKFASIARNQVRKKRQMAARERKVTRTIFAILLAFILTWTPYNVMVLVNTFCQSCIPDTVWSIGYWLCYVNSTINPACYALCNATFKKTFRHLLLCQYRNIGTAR

Histamine H2 receptor = Histamine H2 receptor (Homo sapiens, UniProt P25021); assay type: cell membranes, CHO-K1, Membrane; conditions: cho-k1; note: in other assays of this panel Not Active means under 50% inhibition at 10 µM
Leukotriene C4 synthase = molecular target: T5, Leukotriene C4 synthase (Cavia porcellus, UniProt A6XA80); test: biochemical; assay type: tissue-based, Lung
T5 sequence (A6XA80 whole entry): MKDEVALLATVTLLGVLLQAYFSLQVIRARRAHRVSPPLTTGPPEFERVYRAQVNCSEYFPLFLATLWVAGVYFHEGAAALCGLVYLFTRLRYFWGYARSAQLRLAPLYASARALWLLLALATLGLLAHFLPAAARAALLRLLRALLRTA

[6] = DRUGMATRIX: Potassium Channel [KATP] radioligand binding (ligand: [3H] Glyburide); assay type: cell membranes, Membrane; conditions: hit-t15; Not Active = under 50% inhibition at 10 µM
Acetylcholinesterase = Acetylcholinesterase (Homo sapiens, UniProt P22303); test: DRUGMATRIX: Acetylcholinesterase enzyme inhibition (substrate: acetylthiocholine); assay type: cell-based, HEK293; conditions: hek293; Not Active = under 50% inhibition at 10 µM
Sequence of Acetylcholinesterase (P22303 whole entry): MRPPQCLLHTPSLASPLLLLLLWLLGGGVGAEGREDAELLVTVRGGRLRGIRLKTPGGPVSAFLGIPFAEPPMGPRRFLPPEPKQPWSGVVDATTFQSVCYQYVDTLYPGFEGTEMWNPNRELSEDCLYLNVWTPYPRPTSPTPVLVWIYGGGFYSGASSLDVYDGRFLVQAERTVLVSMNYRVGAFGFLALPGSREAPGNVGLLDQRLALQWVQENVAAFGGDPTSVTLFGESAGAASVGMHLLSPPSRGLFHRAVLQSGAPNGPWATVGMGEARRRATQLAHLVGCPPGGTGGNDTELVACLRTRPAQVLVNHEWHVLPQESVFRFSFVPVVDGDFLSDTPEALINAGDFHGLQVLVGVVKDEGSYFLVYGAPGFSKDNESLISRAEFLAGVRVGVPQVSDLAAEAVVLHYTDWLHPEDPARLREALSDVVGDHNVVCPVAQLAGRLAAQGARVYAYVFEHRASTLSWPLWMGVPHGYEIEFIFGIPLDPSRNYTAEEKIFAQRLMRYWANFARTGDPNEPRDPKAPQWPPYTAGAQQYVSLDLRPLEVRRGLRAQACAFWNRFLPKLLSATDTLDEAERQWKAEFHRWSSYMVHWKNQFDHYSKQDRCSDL

Sequence of Beta-1 adrenergic receptor (P08588 whole entry): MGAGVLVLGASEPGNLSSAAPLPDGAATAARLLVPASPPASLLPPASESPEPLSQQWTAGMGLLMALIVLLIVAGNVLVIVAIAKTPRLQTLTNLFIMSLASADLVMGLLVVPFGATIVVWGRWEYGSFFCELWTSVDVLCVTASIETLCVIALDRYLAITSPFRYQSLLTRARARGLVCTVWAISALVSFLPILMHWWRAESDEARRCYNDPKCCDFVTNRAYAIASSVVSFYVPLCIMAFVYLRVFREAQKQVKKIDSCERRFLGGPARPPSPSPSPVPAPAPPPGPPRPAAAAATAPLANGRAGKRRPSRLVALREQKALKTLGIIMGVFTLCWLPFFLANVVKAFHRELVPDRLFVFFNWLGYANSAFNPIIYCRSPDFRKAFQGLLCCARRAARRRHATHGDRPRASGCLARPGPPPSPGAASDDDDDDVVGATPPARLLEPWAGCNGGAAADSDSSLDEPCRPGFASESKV
Sequence of Histamine H2 receptor (P25021 whole entry): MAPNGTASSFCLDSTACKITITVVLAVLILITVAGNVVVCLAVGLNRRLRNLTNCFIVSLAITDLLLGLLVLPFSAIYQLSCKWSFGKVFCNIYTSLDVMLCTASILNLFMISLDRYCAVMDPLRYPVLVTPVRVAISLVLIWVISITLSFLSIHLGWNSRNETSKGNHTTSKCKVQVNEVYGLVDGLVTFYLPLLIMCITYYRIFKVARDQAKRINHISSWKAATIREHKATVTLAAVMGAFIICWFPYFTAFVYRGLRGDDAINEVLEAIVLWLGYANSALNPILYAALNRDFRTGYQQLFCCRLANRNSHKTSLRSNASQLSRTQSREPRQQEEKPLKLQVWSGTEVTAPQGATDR
Sequence of Mu-type opioid receptor (P35372 whole entry): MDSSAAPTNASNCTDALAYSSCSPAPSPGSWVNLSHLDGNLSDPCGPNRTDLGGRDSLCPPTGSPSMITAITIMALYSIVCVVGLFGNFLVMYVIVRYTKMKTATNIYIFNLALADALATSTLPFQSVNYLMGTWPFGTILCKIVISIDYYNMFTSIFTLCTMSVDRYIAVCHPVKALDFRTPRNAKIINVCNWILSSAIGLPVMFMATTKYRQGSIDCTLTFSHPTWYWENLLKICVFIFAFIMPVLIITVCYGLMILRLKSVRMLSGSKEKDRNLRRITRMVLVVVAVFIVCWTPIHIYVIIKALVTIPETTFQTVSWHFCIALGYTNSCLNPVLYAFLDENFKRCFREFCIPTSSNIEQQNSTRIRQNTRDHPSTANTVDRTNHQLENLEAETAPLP
Sequence of Melanocortin receptor 4 (P32245 whole entry): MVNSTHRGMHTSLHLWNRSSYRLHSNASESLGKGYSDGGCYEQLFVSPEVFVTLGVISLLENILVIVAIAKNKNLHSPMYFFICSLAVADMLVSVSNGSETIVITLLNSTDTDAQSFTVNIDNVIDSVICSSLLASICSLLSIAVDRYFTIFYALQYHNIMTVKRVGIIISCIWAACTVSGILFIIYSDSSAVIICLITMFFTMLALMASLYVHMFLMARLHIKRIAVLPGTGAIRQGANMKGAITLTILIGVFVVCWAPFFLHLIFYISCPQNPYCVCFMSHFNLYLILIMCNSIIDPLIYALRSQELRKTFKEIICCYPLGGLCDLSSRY
Sequence of Adenosine receptor A2a (P29274 whole entry): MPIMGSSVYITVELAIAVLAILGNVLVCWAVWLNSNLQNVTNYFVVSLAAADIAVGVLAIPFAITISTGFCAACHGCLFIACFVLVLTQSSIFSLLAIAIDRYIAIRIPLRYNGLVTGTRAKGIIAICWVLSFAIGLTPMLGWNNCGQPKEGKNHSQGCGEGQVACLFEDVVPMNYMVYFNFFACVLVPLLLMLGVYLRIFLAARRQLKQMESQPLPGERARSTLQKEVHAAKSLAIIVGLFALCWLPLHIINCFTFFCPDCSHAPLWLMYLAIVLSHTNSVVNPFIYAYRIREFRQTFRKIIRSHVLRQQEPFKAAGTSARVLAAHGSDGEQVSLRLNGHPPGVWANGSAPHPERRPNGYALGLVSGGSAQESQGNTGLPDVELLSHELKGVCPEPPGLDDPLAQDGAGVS

Oc1c(I)cc(I)c2cccnc12 [IODOQUINOL]
IC50 ([1]; cho-k1): Not Active
IC50 (Calcitonin receptor): Not Active
IC50 (Melanocortin receptor 4): Not Active
IC50 [2]: Not Active
IC50 [3]: Not Active
IC50 (Adenosine receptor A2a): Not Active
IC50 [4]: Not Active
IC50 (Mu-type opioid receptor): Not Active
IC50 [5]: Not Active
IC50 (Histamine H2 receptor): Not Active
IC50 (Leukotriene C4 synthase): Not Active
IC50 [6]: Not Active
Ki [6]: Not Active
IC50 (Acetylcholinesterase): Not Active

CN1[C@@H]2CC[C@H]1C[C@@H](OC(=O)c1c[nH]c3ccccc13)C2 [TROPISETRON]
IC50 ([1]; cho-k1): Not Active
IC50 (Calcitonin receptor): Not Active
IC50 (Melanocortin receptor 4): Not Active
IC50 [2]: Not Active
IC50 [3]: Not Active
IC50 (Adenosine receptor A2a): Not Active
IC50 [4]: Not Active
IC50 (Mu-type opioid receptor): Not Active
IC50 [5]: Not Active
IC50 (Histamine H2 receptor): Not Active
IC50 (Leukotriene C4 synthase): Not Active
IC50 [6]: Not Active
Ki [6]: Not Active
IC50 (Acetylcholinesterase): Not Active

NC(=O)c1ccccc1O [SALICYLAMIDE]
IC50 ([1]; cho-k1): Not Active
IC50 (Calcitonin receptor): Not Active
IC50 (Melanocortin receptor 4): Not Active
IC50 [2]: Not Active
IC50 [3]: Not Active
IC50 (Adenosine receptor A2a): Not Active
IC50 [4]: Not Active
IC50 (Mu-type opioid receptor): Not Active
IC50 [5]: Not Active
IC50 (Histamine H2 receptor): Not Active
IC50 (Leukotriene C4 synthase): Not Active
IC50 [6]: Not Active
Ki [6]: Not Active
IC50 (Acetylcholinesterase): Not Active

COC(=O)C1=C(C)NC(C)=C(C(=O)OC)C1c1ccccc1[N+](=O)[O-] [NIFEDIPINE]
IC50 ([1]; read-out: IC50): 18.3 µM
Ki ([1]; read-out: Ki): 9.57 µM
IC50 (Calcitonin receptor): Not Active
IC50 (Melanocortin receptor 4): Not Active
IC50 [2]: Not Active
IC50 [3]: Not Active
IC50 (Adenosine receptor A2a): Not Active
IC50 [4]: Not Active
IC50 (Mu-type opioid receptor): Not Active
IC50 [5]: Not Active
IC50 (Histamine H2 receptor): Not Active
IC50 (Leukotriene C4 synthase): Not Active
IC50 [6]: Not Active
Ki [6]: Not Active
IC50 (Acetylcholinesterase): Not Active

CC(=O)S[C@@H]1CC2=CC(=O)CC[C@]2(C)[C@H]2CC[C@@]3(C)[C@@H](CC[C@@]34CCC(=O)O4)[C@H]12 [SPIRONOLACTONE]
IC50 ([1]; cho-k1): Not Active
IC50 (Calcitonin receptor): Not Active
IC50 (Melanocortin receptor 4): Not Active
IC50 [2]: Not Active
IC50 [3]: Not Active
IC50 (Adenosine receptor A2a): Not Active
IC50 [4]: Not Active
IC50 (Mu-type opioid receptor): Not Active
IC50 [5]: Not Active
IC50 (Histamine H2 receptor): Not Active
IC50 (Leukotriene C4 synthase): Not Active
IC50 [6]: Not Active
Ki [6]: Not Active
IC50 (Acetylcholinesterase): Not Active

COC(=O)[C@@H]1[C@H]2C[C@H]3c4[nH]c5ccccc5c4CCN3C[C@@H]2CC[C@@H]1O [YOHIMBINE]
IC50 ([1]; cho-k1): Not Active
IC50 (Calcitonin receptor): Not Active
IC50 (Melanocortin receptor 4): Not Active
IC50 [2]: Not Active
IC50 [3]: Not Active
IC50 (Adenosine receptor A2a): Not Active
IC50 [4]: Not Active
IC50 (Mu-type opioid receptor): Not Active
IC50 [5]: Not Active
IC50 (Histamine H2 receptor): Not Active
IC50 (Leukotriene C4 synthase): Not Active
IC50 [6]: Not Active
Ki [6]: Not Active
IC50 (Acetylcholinesterase): Not Active

CO[C@@H]1[C@@H](O[C@@H]2O[C@H](C)[C@@H](O[C@H]3C[C@@](C)(O)[C@@H](OC(=O)CC(C)C)[C@H](C)O3)[C@H](N(C)C)[C@H]2O)[C@@H](CC=O)C[C@@H](C)[C@@H](O)/C=C/C=C/C[C@@H](C)OC(=O)C[C@H]1O [KITASAMYCIN]
IC50 ([1]; cho-k1): Not Active
IC50 (Calcitonin receptor): Not Active
IC50 (Melanocortin receptor 4): Not Active
IC50 [2]: Not Active
IC50 [3]: Not Active
IC50 (Adenosine receptor A2a): Not Active
IC50 [4]: Not Active
IC50 (Mu-type opioid receptor): Not Active
IC50 [5]: Not Active
IC50 (Histamine H2 receptor): Not Active
IC50 (Leukotriene C4 synthase): Not Active
IC50 [6]: Not Active
Ki [6]: Not Active
IC50 (Acetylcholinesterase): Not Active

Clc1ccc(C(c2ccccc2Cl)C(Cl)Cl)cc1 (stereo unspecified) [MITOTANE]
IC50 ([1]; cho-k1): Not Active
IC50 (Calcitonin receptor): Not Active
IC50 (Melanocortin receptor 4): Not Active
IC50 [2]: Not Active
IC50 [3]: Not Active
IC50 (Adenosine receptor A2a): Not Active
IC50 [4]: Not Active
IC50 (Mu-type opioid receptor): Not Active
IC50 [5]: Not Active
IC50 (Histamine H2 receptor): Not Active
IC50 (Leukotriene C4 synthase): Not Active
IC50 [6]: Not Active
Ki [6]: Not Active
IC50 (Acetylcholinesterase): Not Active

C=CC[C@@H]1/C=C(\C)C[C@H](C)C[C@H](OC)[C@H]2O[C@@](O)(C(=O)C(=O)N3CCCC[C@H]3C(=O)O[C@H](/C(C)=C/[C@@H]3CC[C@@H](O)[C@H](OC)C3)[C@H](C)[C@@H](O)CC1=O)[C@H](C)C[C@@H]2OC [TACROLIMUS ANHYDROUS]
IC50 ([1]; cho-k1): Not Active
IC50 (Calcitonin receptor): Not Active
IC50 (Melanocortin receptor 4): Not Active
IC50 [2]: Not Active
IC50 [3]: Not Active
IC50 (Adenosine receptor A2a): Not Active
IC50 [4]: Not Active
IC50 (Mu-type opioid receptor): Not Active
IC50 [5]: Not Active
IC50 (Histamine H2 receptor): Not Active
IC50 (Leukotriene C4 synthase): Not Active
IC50 [6]: Not Active
Ki [6]: Not Active
IC50 (Acetylcholinesterase): Not Active

Cc1cc(NS(=O)(=O)c2ccc(N)cc2)no1 [SULFAMETHOXAZOLE]
IC50 ([1]; cho-k1): Not Active
IC50 (Calcitonin receptor): Not Active
IC50 (Melanocortin receptor 4): Not Active
IC50 [2]: Not Active
IC50 [3]: Not Active
IC50 (Adenosine receptor A2a): Not Active
IC50 [4]: Not Active
IC50 (Mu-type opioid receptor): Not Active
IC50 [5]: Not Active
IC50 (Histamine H2 receptor): Not Active
IC50 (Leukotriene C4 synthase): Not Active
IC50 [6]: Not Active
Ki [6]: Not Active
IC50 (Acetylcholinesterase): Not Active
